Several values for one entry are separate records, joined by “and”; a condition that tells them apart may be missing. Equal entries are not always repeated.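 How tested: cells in 96-well plates exposed to compound for 48 hours at five concentrations. GI50: concentration for 50% inhibition of growth. Definition used: TGI = concentration required for complete inhibition of growth.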
How the values were obtained:
Assay in all cases: NCI tumour cell line growth inhibition, 48 h
[1] = tested on: HT29 colon
[2] = tested on: MOLT-4 leukemia
[3] = tested on: NCI-H460 lung
[4] = tested on: OVCAR-4 ovarian
[5] = tested on: OVCAR-8 ovarian
[6] = tested on: RXF 393 renal
[7] = tested on: SK-OV-3 ovarian
[8] = tested on: T-47D breast
[9] = tested on: TK-10 renal
[10] = tested on: UACC-257 melanoma

Compound | GI50 [1] [µM] | TGI [1] | GI50 [2] [µM] | TGI [2] | GI50 [3] [µM] | TGI [3] | GI50 [4] [µM] | TGI [4] | GI50 [5] [µM] | TGI [5] | GI50 [6] [µM] | TGI [6] | GI50 [7] [µM] | TGI [7] | GI50 [8] [µM] | TGI [8] | GI50 [9] [µM] | TGI [9] | GI50 [10] [µM] | TGI [10]
CC(=O)c1c(C)[nH]c(-c2nc3ccc(N4CCN(C)CC4)cc3[nH]2)c1-c1ccccc1 | 0.437 | 18.5 µM | 6.47 | > 100 µM | 4.24 | 31.4 µM | 2.55 | 43.2 µM | 3.08 | > 100 µM | 2.84 | 16.1 µM | 0.97 | > 100 µM | 0.703 | 36.1 µM | 0.604 | 27.2 µM | 1.46 | 17.9 µM
CCCCCCCCCCCC[n+]1ccc2ccccc2c1 | 0.419 | 2.14 µM | 0.681 | 2.65 µM | 1.69 | 3.27 µM | 0.486 | 2.33 µM | 0.654 | 2.34 µM | 1.36 | 2.88 µM | 1.43 | 3.1 µM | 0.406 | 5.26 µM | 1.17 | 2.57 µM | 0.405 | 1.82 µM
CSc1ccc2c(c1)C(N1CCN(C)CC1)Cc1ccccc1S2 (stereo not drawn) | 1.8 | 6.84 µM and 3.65 µM | 1.89 | 8.67 µM and 3.87 µM | 1.74 | 7.12 µM and 3.45 µM | 2.6 | 9.66 µM and 9.89 µM | 2.07 | 22.8 µM and 5.35 µM | 1.54 | 14 µM and 3.39 µM | 2.01 | 27.3 µM and 4.25 µM | 2.19 | 42.5 µM and 5.17 µM | 1.84 | 12.8 µM and 3.41 µM | 1.54 | 5.43 µM and 3.03 µM
COc1ccc(N(C)c2nc(N)nc3sc4c(c23)CCCC4)cc1 | < 0.01 | 12.1 µM | < 0.0125 | 28 µM | < 0.01 | 4.19 µM | < 0.01 | 15.3 µM | < 0.0171 | 14.9 µM | < 0.01 | 20.7 µM | < 0.013 | 14.2 µM | < 0.01 | 30.8 µM | < 0.0278 | 22 µM | 8.12 | 26.3 µM
Cc1cc(Cl)nc(N(CCCNc2ccnc3cc(Cl)ccc23)Cc2ccco2)n1 | 1.38 | 6.46 µM | 1.93 | 6.46 µM | 2.04 | 6.2 µM | 2.31 | 12.2 µM | 2.05 | 6.31 µM | 1.41 | 4.55 µM | 2.45 | 8.22 µM | 1.73 | 6.43 µM | 2.7 | 11.1 µM | 2.21 | 5.76 µM
NC(=S)c1c(N)n(C2OC(CO)C(O)C2O)c2ncnc(N)c12 (stereo not drawn) | 0.147 | > 40.9 µM | 0.245 | 0.927 µM | 0.2 |  | 0.264 | > 100 µM | 0.232 | 0.863 µM | 0.237 | 0.557 µM | 0.388 | > 100 µM | 0.238 | 1.17 µM | 0.297 | 3.56 µM | 0.729 | 4.8 µM
CO[C@H]1C[C@@H]2CC[C@@H](C)[C@@](O)(O2)C(=O)C(=O)N2CCCC[C@H]2C(=O)O[C@H]([C@H](C)C[C@@H]2CC[C@@H](OCCO)[C@H](OC)C2)CC(=O)[C@H](C)C=C(C)[C@@H](O)[C@@H](OC)C(=O)[C@H](C)C[C@H](C)/C=C/C=C/C=C1C | 2.55 | 21.1 µM |  | 20.3 µM |  | 19.4 µM | < 0.0124 | 17.1 µM |  | 29.5 µM | < 0.01 |  | < 0.01 | 20.5 µM | < 0.01 | 21.5 µM | < 0.01 | 19.1 µM | 5.88 | 22.2 µM
COc1cc2nc3cc([N+](=O)[O-])ccc3c(NCCNCC(C)(C)O)c2cc1OC | 0.327 | 1.4 µM | 0.354 | 10.7 µM | 0.377 | 1.47 µM | 0.672 | 2.99 µM | 0.769 | 4.48 µM | 1.07 | 2.87 µM | 2.01 | 6.51 µM | 0.437 | 2.91 µM | 1.7 | 5.43 µM | 1.94 | 4.19 µM
CCCCCCCCCCCCCC[C@@H](O)[C@H]1CC[C@H]([C@H]2CC[C@H]([C@H](O)CCCCCC[C@@H](O)CC3=C[C@H](C)OC3=O)O2)O1 | > 25 | 3.3 µM and > 25 µM | 2.01 | 8.81 µM and > 25 µM | 0.0214 | 4.26 µM and > 25 µM |  | > 25 µM | > 25 | 3.94 µM and > 25 µM | 2.72 | > 25 µM |  | > 25 µM | 2.14 | > 25 µM | 2.72 | 8.15 µM and > 25 µM | 1.62 | 6.01 µM and > 25 µM
O=[N+]([O-])c1cccc(C2CC(c3ccccc3)=Nc3ccccc3S2)c1 (stereo not drawn) | 8.25 | 24.3 µM | 7.44 | > 100 µM | 20.5 | 48.7 µM | 11.7 | 26.4 µM | 15.5 | 39.6 µM | 17.2 | 36.6 µM | 34.9 | > 100 µM | 16.6 | 52.6 µM | 22.1 | 42.2 µM | 21.6 | 61 µM
CN(CC(=O)N(Cc1ccc(C2CCCCC2)cc1)c1ccc(C(=O)O)cc1)S(=O)(=O)c1c(F)c(F)c(F)c(F)c1F | 2.01 | 4.11 µM | 2.42 | 6.14 µM | 3.33 | 10.4 µM | 1.81 | 3.48 µM | 2.5 | 5.79 µM | 1.93 | 3.37 µM | 1.93 | 3.8 µM | 2.09 | 4.83 µM | 2.75 | 10.5 µM | 2.01 | 3.71 µM
COc1ccc(N=N/C(C(=O)C(F)(F)F)=C(\O)c2ccc(Cl)cc2)cc1 | 4.6 | 17.2 µM | 5.09 | 53 µM | 3.77 | 27.7 µM | 21.6 | > 100 µM | 10.7 | 70.3 µM | 12.3 | 45 µM | 14.4 | 35.3 µM | 5.98 | 64.9 µM | 18.3 | 61.4 µM | 4.57 | 36.2 µM

— PubChem BioAssay (NCI)
